# Results: patent US20210045385A1, “PYRIDAZINONE-SUBSTITUTED KETOXIMES AS HERBICIDES” (FMC Corporation, priority 2018, published 2021)
# What was measured:
# Format in all cases: in vivo
# [1] = system: Italian ryegrass (Lolium multiflorum); test: Test A preemergence, visual plant response rating
# Source text: (§1) Seeds of plant species selected from barnyardgrass (Echinochloa crus-galli), kochia (Kochia scoparia), ragweed (common ragweed, Ambrosia elatior), Italian ryegrass (Lolium multiflorum), foxtail, giant (giant foxtail, Setaria faberii), foxtail, green (green foxtail, Setaria viridis), and pigweed (Amaranthus retroflexus) were planted into a blend of loam soil and sand and treated preemergence with a directed soil spray using test chemicals formulated in a non-phytotoxic solvent mixture which included a surfactant.
# (§2) At the same time, plants selected from these weed species and also wheat (Triticum aestivum), corn (Zea mays), blackgrass (Alopecurus myosuroides), and galium (catchweed bedstraw, Galium aparine) were planted in pots containing the same blend of loam soil and sand and treated with postemergence applications of test chemicals formulated in the same manner. Plants ranged in height from 2 to 10 cm and were in the one- to two-leaf stage for the postemergence treatment. Treated plants and untreated controls were maintained in a greenhouse for approximately 10 days, after which time all treated plants were compared to untreated controls and visually evaluated for injury. Plant response ratings, summarized in Table A, are based on a 0 to 100 scale where 0 is no effect and 100 is complete control. A dash (-) response means no test result.
# [2] = system: barnyardgrass (Echinochloa crus-galli); test: Test A preemergence, visual plant response rating
# Source text: as §1, §2
# [3] = system: foxtail, giant (giant foxtail, Setaria faberii); test: Test A preemergence, visual plant response rating
# Source text: as §1, §2
# kochia (Kochia scoparia) [4] = test: Test A preemergence, visual plant response rating
# Source text: as §1, §2
# [5] = system: pigweed (Amaranthus retroflexus); test: Test A preemergence, visual plant response rating
# Source text: as §1, §2
# [6] = system: Italian ryegrass (Lolium multiflorum); test: Test A postemergence, visual plant response rating
# Source text: as §1, §2
# [7] = system: barnyardgrass (Echinochloa crus-galli); test: Test A postemergence, visual plant response rating
# Source text: as §1, §2
# [8] = system: blackgrass (Alopecurus myosuroides); test: Test A postemergence, visual plant response rating
# Source text: as §1, §2
# corn (Zea mays) = test: Test A postemergence, visual plant response rating
# Source text: as §1, §2
# [9] = system: foxtail, giant (giant foxtail, Setaria faberii); test: Test A postemergence, visual plant response rating
# Source text: as §1, §2
# [10] = system: galium (catchweed bedstraw, Galium aparine); test: Test A postemergence, visual plant response rating
# Source text: as §1, §2
# kochia (Kochia scoparia) [11] = test: Test A postemergence, visual plant response rating
# Source text: as §1, §2
# [12] = system: pigweed (Amaranthus retroflexus); test: Test A postemergence, visual plant response rating
# Source text: as §1, §2
# [13] = system: ragweed (common ragweed, Ambrosia elatior); test: Test A postemergence, visual plant response rating
# Source text: as §1, §2
# [14] = system: wheat (Triticum aestivum); test: Test A postemergence, visual plant response rating
# Source text: as §1, §2
# [15] = system: barnyardgrass (Echinochloa crus-galli); test: Test B flooded paddy test, visual plant response rating; settings: 250 g ai/ha, Flood, applied to paddy water, 2-leaf stage, evaluated after 13 to 15 days
# Method: (§3) Plant species in the flooded paddy test selected from rice (Oryza sativa), sedge, umbrella (small-flower umbrella sedge, Cyperus difformis), ducksalad (Heteranhera limosa), and barnyardgrass (Echinochloa crus-galli) were grown to the 2-leaf stage for testing. At time of treatment, test pots were flooded to 3 cm above the soil surface treated by application of test compounds directly to the paddy water, and then maintained at that water depth for the duration of the test. Treated plants and controls were maintained in a greenhouse for 13 to 15 days, after which time all species were compared to controls and visually evaluated. […] A dash (-) response means no test result.
# [16] = system: ducksalad (Heteranhera limosa); test: as above; settings: 250 g ai/ha, Flood, applied to paddy water, 2-leaf stage, evaluated after 13 to 15 days
# Method: as §3
# rice (Oryza sativa) = test: as above; settings: 250 g ai/ha, Flood, applied to paddy water, 2-leaf stage, evaluated after 13 to 15 days
# Method: as §3
# [17] = system: sedge, umbrella (small-flower umbrella sedge, Cyperus difformis); test: as above; settings: 250 g ai/ha, Flood, applied to paddy water, 2-leaf stage, evaluated after 13 to 15 days
# Method: as §3
# [18] = 125 g ai/ha, preemergence, 0 to 100 scale, 0 no effect, 100 complete control
# [19] = 500 g ai/ha Preemergence, approx. 10 days
# [20] = 500 g ai/ha, postemergence, 0 is no effect, 100 is complete control
# [21] = Postemergence, 125 g ai/ha, 0 to 100 scale (0 no effect, 100 complete control)
smiles,measurement,setting,value
Cc1nn(C)c(=O)c(/C(=N/OC(C)C)c2ccc(F)c3ccccc23)c1O [Compound 88],"Ryegrass, Italian plant response rating",[1]; [18],90
same,"Ryegrass, Italian plant response rating (0 to 100 scale)",[1]; [19],100
same,Barnyardgrass plant response rating,[2]; [18],70
same,Barnyardgrass plant response rating (0 to 100 scale),[2]; [19],90
same,"Foxtail, Giant plant response rating",[3]; [18],90
same,"Foxtail, Giant plant response rating (0 to 100 scale)",[3]; [19],100
same,Kochia plant response rating,kochia (Kochia scoparia) [4]; [18],10
same,Kochia plant response rating (0 to 100 scale),kochia (Kochia scoparia) [4]; [19],90
same,Pigweed plant response rating,[5]; [18],100
same,Pigweed plant response rating (0 to 100 scale),[5]; [19],100
same,"Ryegrass, Italian plant response rating (0 to 100 scale)",[6]; [20],100
same,"Ryegrass, Italian plant response rating",[6]; [21],100
same,Barnyardgrass plant response rating (0 to 100 scale),[7]; [20],80
same,Barnyardgrass plant response rating,[7]; [21],50
same,Blackgrass plant response rating (0 to 100 scale),[8]; [20],90
same,Blackgrass plant response rating,[8]; [21],80
same,Corn plant response rating (0 to 100 scale),corn (Zea mays); [20],30
same,Corn plant response rating,corn (Zea mays); [21],10
same,"Foxtail, Giant plant response rating (0 to 100 scale)",[9]; [20],90
same,"Foxtail, Giant plant response rating",[9]; [21],80
same,Galium plant response rating (0 to 100 scale),[10]; [20],90
same,Galium plant response rating,[10]; [21],90
same,Kochia plant response rating (0 to 100 scale),kochia (Kochia scoparia) [11]; [20],70
same,Kochia plant response rating,kochia (Kochia scoparia) [11]; [21],60
same,Pigweed plant response rating (0 to 100 scale),[12]; [20],100
same,Pigweed plant response rating,[12]; [21],90
same,Ragweed plant response rating (0 to 100 scale),[13]; [20],90
same,Ragweed plant response rating,[13]; [21],100
same,Wheat plant response rating (0 to 100 scale),[14]; [20],50
same,Wheat plant response rating,[14]; [21],10
same,"Plant response rating, Barnyardgrass (0 to 100 scale, 0 is no effect, 100 is complete control)",[15],0
same,"Plant response rating, Ducksalad (0 to 100 scale, 0 is no effect, 100 is complete control)",[16],0
same,"Plant response rating, Rice (0 to 100 scale, 0 is no effect, 100 is complete control)",rice (Oryza sativa),0
same,"Plant response rating, Sedge, Umbrella (0 to 100 scale, 0 is no effect, 100 is complete control)",[17],0
